Test system: 439559-082-T-J2-PDC complex spheroid growth
Test: Anticancer human tumor 439559-082-T-J2-PDC patient-derived colon adenocarcinoma cell line growth inhibition [Asc]
Conditions: for IC50: curve of first compound; for viability, T/C: stronger effect = lower value
Description: Multicellular complex tumor spheroid response to apoptosis pathway targeting inhibitors Alrizomadlin, Pelcitoclax, and Dasminapant in combination with a variety of drugs and investigational agents in selected tumor cell lines
The MDM2 inhibitor alrizomadlin, the Bcl-2/Bcl-xL inhibitor pelcitoclax, and the IAPs inhibitor dasminapant were evaluated both individually and in combination with standard of care and investigational anticancer small molecules within a complex spheroid model of solid tumors. . Complex spheroids include a stromal component modeled by human endothelial cells (HUVEC) and fibroblasts modeled by human mesenchymal stem cells (MSCs). The concentration ranges selected for each drug and investigational agent were based upon clinically achievable concentrations if the clinical Cmax of the agent was known.
Compounds. The drugs and investigational agents: alrizomadlin (APG-115; NSC831270), pelcitoclax (APG-1252; NSC835773), dasminapant (APG-1387;NSC834197), TAK-243 (NSC785004), copanlisib (NSC809693), olaparib (NSC753686), talazoparib (NSC767125), cobimetinib (NSC 768068), eltanexor (KPT-8602, NSC 794443), abemaciclib (NSC 768073), sotorasib (NSC818433), adagrasib (NSC 831453), MRTX-1133 (NSC 836407), Iadademestat (ORY1001, NSC 806812), and RMC-4630 (NSC839698), were obtained from the NCI Developmental Therapeutics Program Chemical Repository. The FDA-approved anticancer drug set is available from the Developmental Therapeutics Program at https://dtp.cancer.gov/organization/dscb/obtaining/available plates.htm. […] The stock solutions were prepared in dimethyl sulfoxide (DMSO, Sigma-Aldrich, St. Louis, MO, cat. D2650) at 800-fold the tested concentration and stored at -70 degrees C prior to their use. All drugs and investigational agents were tested over a range starting from a high concentration at or near the clinical Cmax and decreasing in half-log increments. If the clinical Cmax for an agent had not been determined, the highest concentration tested was 10 microM.
The patient-derived cancer (PDC) cell lines include five colon adenocarcinomas: 186277-243-T-J2-PDC, 616215-338-R-J1-PDC, 439559-082-T-J2-PDC, 463943-066-T-J2-PDC, and 519858-162-T-J1-PDC; three pancreatic carcinomas: 323965-272-R-J2-PDC, 521955-158-R6-J3-PDC, and 521955-158-R2-J5-PDC; two uterine sarcomas: 327498-152-R-J2-PDC and 993429-296-R-J1-PDC; two rhabdomyosarcomas: 755483-174-R-J1-PDC and 772245-204-R-J1-PDC; two soft tissue sarcomas: 126254-015-R-J1-PDC and 494315-158-R-J1-PDC; two malignant fibrous histiocytomas: 317291-083-R-J1-PDC and 596521-263-R-J1-PDC; two breast carcinomas: 171881-019-R-J1-PDC and 885512-296-R-J2-PDC; and one ovarian carcinoma: 6556581-035-R-J-PDC were obtained from the NCI PDMR, (https://pdmr.cancer.gov). The established cell lines HSSY-2 synovial sarcoma (RRID:CVCL 8719), SYO-1 synovial sarcoma (RRID:CVCL_7146), MPNST malignant peripheral neural sheath tumor were obtained from the Sloan Kettering Institute. The following established cell lines were purchased from the American Type Culture Collection (ATCC, Manassas, VA), Sor the received from the NCI repository:, PANC-1 pancreatic carcinoma (CRL-1469, RRID:CVCL_0480), OVCAR-5 ovarian carcinoma (RRID:CVCL_1628), OVCAR-8 ovarian carcinoma (RRID:CVCL_1629), , MCF-7 breast carcinoma (CRL-12584, RRID:CVCL_0031), MDA-MB-231 breast carcinoma (CRL-12532, RRID:CVCL_0062), NCI-H1876 small cell lung carcinoma (CRL-5902, RRID:CVCL_1503), NCI-H510A small cell lung carcinoma (HTB-184, RRID:CVCL_1565), NCI-H1417 (CRL-5869, RRID:CVCL_1469), and NCI-H196 small cell lung carcinoma (CRL-5823, RRID:CVCL_1509). Dr. Peter Houghton (Greehey Children's Cancer Research Institute, University of Texas Health Science Center, San Antonio, TX) provided Rh-18 rhabdomyosarcoma (RRID:CVCL_1659). Pooled donor human umbilical vein endothelial cells (HUVEC, Lonza, cat. CC-2519) and human mesenchymal stem cells (hMSC, Lonza, cat. PT-2501) were purchased from Lonza (Walkersville, MD).
Cell Culture. […]
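Note: spheroids exposed to agents for 7 days starting day 3 after seeding.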
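Throughout, for viability, T/C: percent of DMSO vehicle control viability with 100% = vehicle.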

**Q.** Which results are given for `C=C(F)C(=O)N1CCN(c2nc(OCC3CCCN3C)nc3c2CCN(c2cccc4cccc(Cl)c24)C3)CC1CC#N` (stereo not given) + Cc1c(S(C)(=O)=O)c(-c2cc(F)cc(N3CCN(c4ccc(NS(=O)(=O)c5ccc(NC(CCN6CCC(C(=O)OCCCP(=O)(O)O)CC6)CSc6ccccc6)c(S(=O)(=O)C(F)(F)F)c5)cc4)CC3)c2)c(-c2ccc(Cl)cc2)n1C(C)C?
**A.** IC50 (second compound 0.1 µM): 5.15 µM; IC50 (second compound 0.316 µM): 4.17 µM; IC50 (second compound 1 µM): 4.17 µM; IC50 (second compound 3.16 µM): 3.17 µM; IC50 (second compound 10 µM): 2.78 µM; viability, T/C (second compound 0.1 µM, first compound 0.0316 µM): 96.8%; viability, T/C (second compound 0.1 µM, first compound 0.1 µM): 107%; viability, T/C (second compound 0.1 µM, first compound 0.316 µM): 95%; viability, T/C (second compound 0.1 µM, first compound 1 µM): 88.6%; viability, T/C (second compound 0.1 µM, first compound 3.16 µM): 78.4%; viability, T/C (second compound 0.1 µM, first compound 10 µM): 14.2%; viability, T/C (second compound 0.316 µM, first compound 0.0316 µM): 95.3%; viability, T/C (second compound 0.316 µM, first compound 0.1 µM): 106%; viability, T/C (second compound 0.316 µM, first compound 0.316 µM): 98.5%; viability, T/C (second compound 0.316 µM, first compound 1 µM): 77.7%; viability, T/C (second compound 0.316 µM, first compound 3.16 µM): 69.2%; viability, T/C (second compound 0.316 µM, first compound 10 µM): 4.6%; viability, T/C (second compound 1 µM, first compound 0.0316 µM): 95.8%; viability, T/C (second compound 1 µM, first compound 0.1 µM): 94.5%; viability, T/C (second compound 1 µM, first compound 0.316 µM): 103%; viability, T/C (second compound 1 µM, first compound 1 µM): 84.5%; viability, T/C (second compound 1 µM, first compound 3.16 µM): 66.6%; viability, T/C (second compound 1 µM, first compound 10 µM): 0.51%; viability, T/C (second compound 3.16 µM, first compound 0.0316 µM): 79.1%; viability, T/C (second compound 3.16 µM, first compound 0.1 µM): 95.3%; viability, T/C (second compound 3.16 µM, first compound 0.316 µM): 93.4%; viability, T/C (second compound 3.16 µM, first compound 1 µM): 71.7%; viability, T/C (second compound 3.16 µM, first compound 3.16 µM): 51.6%; viability, T/C (second compound 3.16 µM, first compound 10 µM): 0.43%; viability, T/C (second compound 10 µM, first compound 0.0316 µM): 68%; viability, T/C (second compound 10 µM, first compound 0.1 µM): 85.8%; viability, T/C (second compound 10 µM, first compound 0.316 µM): 86.3%; viability, T/C (second compound 10 µM, first compound 1 µM): 65.8%; viability, T/C (second compound 10 µM, first compound 3.16 µM): 48.5%; viability, T/C (second compound 10 µM, first compound 10 µM): 2.9%

— PubChem BioAssay AID1963423 (Molecular Pharmacology Branch, DTP, NCI, 2024)
